Results reported in PubChem BioAssay (NCI).
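Values below derive from 48-hour exposures of cells grown in 96-well plates, with endpoints linearly interpolated between the two concentrations bracketing the appropriate inhibition level. TGI: concentration producing complete growth inhibition.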

What was measured:
Experiment in all cases: NCI-60 cell line screen, 48 h
SR leukemia = tested on: SR leukemia
SN12C renal = tested on: SN12C renal
HS 578T breast = tested on: HS 578T breast
SF-295 CNS = tested on: SF-295 CNS
ACHN renal = tested on: ACHN renal
DU-145 prostate = tested on: DU-145 prostate
UACC-257 melanoma = tested on: UACC-257 melanoma
SK-MEL-5 melanoma = tested on: SK-MEL-5 melanoma
NCI-H522 lung = tested on: NCI-H522 lung
RXF 393 renal = tested on: RXF 393 renal
MDA-MB-435 = tested on: MDA-MB-435
TK-10 renal = tested on: TK-10 renal
KM12 colon = tested on: KM12 colon
HCT-116 colon = tested on: HCT-116 colon
CAKI-1 renal = tested on: CAKI-1 renal
LOX IMVI melanoma = tested on: LOX IMVI melanoma
COLO 205 colon = tested on: COLO 205 colon
OVCAR-8 ovarian = tested on: OVCAR-8 ovarian
A549 NSCLC = tested on: A549 NSCLC
SW-620 colon = tested on: SW-620 colon
OVCAR-5 ovarian = tested on: OVCAR-5 ovarian
UACC-62 melanoma = tested on: UACC-62 melanoma
A498 renal = tested on: A498 renal
HOP-62 NSCLC = tested on: HOP-62 NSCLC
SNB-75 CNS = tested on: SNB-75 CNS
IGROV1 ovarian = tested on: IGROV1 ovarian
NCI/ADR-RES ovarian = tested on: NCI/ADR-RES ovarian
SF-539 CNS = tested on: SF-539 CNS
786-0 renal = tested on: 786-0 renal
M14 melanoma = tested on: M14 melanoma
SNB-19 CNS = tested on: SNB-19 CNS
OVCAR-3 ovarian = tested on: OVCAR-3 ovarian
MALME-3M melanoma = tested on: MALME-3M melanoma
HCT-15 colon = tested on: HCT-15 colon
MDA-N = tested on: MDA-N
NCI-H460 lung = tested on: NCI-H460 lung
SF-268 CNS = tested on: SF-268 CNS
EKVX NSCLC = tested on: EKVX NSCLC
NCI-H23 lung = tested on: NCI-H23 lung
RPMI-8226 leukemia = tested on: RPMI-8226 leukemia
HL-60(TB) leukemia = tested on: HL-60(TB) leukemia
OVCAR-4 ovarian = tested on: OVCAR-4 ovarian
NCI-H226 lung = tested on: NCI-H226 lung
MCF7 breast = tested on: MCF7 breast
SK-MEL-28 melanoma = tested on: SK-MEL-28 melanoma
HOP-92 NSCLC = tested on: HOP-92 NSCLC
SK-OV-3 ovarian = tested on: SK-OV-3 ovarian
HT29 colon = tested on: HT29 colon
CCRF-CEM leukemia = tested on: CCRF-CEM leukemia
BT-549 breast = tested on: BT-549 breast
MOLT-4 leukemia = tested on: MOLT-4 leukemia
MDA-MB-231 breast = tested on: MDA-MB-231 breast
SK-MEL-2 melanoma = tested on: SK-MEL-2 melanoma
U251 CNS = tested on: U251 CNS
UO-31 renal = tested on: UO-31 renal
HCC-2998 colon = tested on: HCC-2998 colon
K-562 leukemia = tested on: K-562 leukemia
PC-3 prostate = tested on: PC-3 prostate

Measured: TGI

CCOC(=O)/C(=C\NC(C)(C)C)c1nc2ccccc2o1
68.5 µM: ACHN renal
48.6 µM: SR leukemia
80.8 µM: HT29 colon
51.1 µM: UACC-257 melanoma
63.4 µM: NCI-H226 lung
54.6 µM: CCRF-CEM leukemia
50.8 µM: RPMI-8226 leukemia
65.4 µM: LOX IMVI melanoma
19.1 µM: HL-60(TB) leukemia
85.6 µM: MALME-3M melanoma
70.7 µM: 786-0 renal
26 µM: SK-MEL-5 melanoma
63.9 µM: HS 578T breast
> 100 µM: SN12C renal | SF-295 CNS | DU-145 prostate | NCI-H522 lung | MDA-MB-435 | TK-10 renal | KM12 colon | HCT-116 colon | CAKI-1 renal | OVCAR-8 ovarian | A549 NSCLC | SW-620 colon | OVCAR-5 ovarian | A498 renal | HOP-62 NSCLC | SNB-75 CNS | IGROV1 ovarian | NCI/ADR-RES ovarian | SF-539 CNS | M14 melanoma | SNB-19 CNS | OVCAR-3 ovarian | HCT-15 colon | MDA-N | NCI-H460 lung | SF-268 CNS | EKVX NSCLC | NCI-H23 lung | OVCAR-4 ovarian | MCF7 breast | SK-MEL-28 melanoma | SK-OV-3 ovarian | BT-549 breast
55.3 µM: COLO 205 colon
67.1 µM: RXF 393 renal
92.1 µM: HOP-92 NSCLC
50.6 µM: UACC-62 melanoma

COc1ccc(-c2cc(-c3ccco3)c(C#N)c(=S)n2C2OC(CO)C(O)C(O)C2O)cc1 (stereo not drawn)
> 100 µM: SN12C renal | MOLT-4 leukemia | HS 578T breast | SF-295 CNS | ACHN renal | MDA-MB-231 breast | UACC-257 melanoma | SK-MEL-5 melanoma | NCI-H522 lung | RXF 393 renal | MDA-MB-435 | TK-10 renal | KM12 colon | HCT-116 colon | CAKI-1 renal | LOX IMVI melanoma | COLO 205 colon | OVCAR-8 ovarian | A549 NSCLC | SK-MEL-2 melanoma | SW-620 colon | OVCAR-5 ovarian | A498 renal | HOP-62 NSCLC | SNB-75 CNS | IGROV1 ovarian | U251 CNS | UO-31 renal | NCI/ADR-RES ovarian | SF-539 CNS | 786-0 renal | M14 melanoma | SNB-19 CNS | OVCAR-3 ovarian | MALME-3M melanoma | HCT-15 colon | MDA-N | NCI-H460 lung | SF-268 CNS | EKVX NSCLC | HCC-2998 colon | K-562 leukemia | NCI-H23 lung | RPMI-8226 leukemia | OVCAR-4 ovarian | NCI-H226 lung | MCF7 breast | SK-MEL-28 melanoma | SK-OV-3 ovarian | PC-3 prostate | HT29 colon | CCRF-CEM leukemia | BT-549 breast
